This note sets out measurements from patent US8293914B2, “4-OXO,1-4-dihydroquinoline M1 receptor positive allosteric modulators” (Merck Sharp & Dohme Corp., priority 2008, dated 2012).

This assay concerns the target T1, acetylcholine muscarinic M1 receptor (CHOnfat/hM1 cells) (Homo sapiens, UniProt P11229).
T1 construct: expressed in transfected cells; host or cells: CHOnfat (CHO) cells expressing hM1
T1 sequence (P11229 1-460): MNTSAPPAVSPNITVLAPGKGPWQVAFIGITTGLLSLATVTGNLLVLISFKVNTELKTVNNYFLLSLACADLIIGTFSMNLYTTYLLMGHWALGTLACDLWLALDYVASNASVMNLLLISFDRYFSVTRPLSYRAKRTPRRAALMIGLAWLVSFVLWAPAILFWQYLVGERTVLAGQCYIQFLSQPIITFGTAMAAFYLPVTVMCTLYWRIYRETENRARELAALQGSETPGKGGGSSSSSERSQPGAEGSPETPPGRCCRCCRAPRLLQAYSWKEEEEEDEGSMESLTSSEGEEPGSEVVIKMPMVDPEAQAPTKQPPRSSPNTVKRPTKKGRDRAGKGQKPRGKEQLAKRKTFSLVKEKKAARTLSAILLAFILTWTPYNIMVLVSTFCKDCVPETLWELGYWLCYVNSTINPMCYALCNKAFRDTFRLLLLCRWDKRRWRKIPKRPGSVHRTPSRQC
Briefly: muscarinic M1 FLIPR calcium assay for positive allosteric modulator activity (acetylcholine EC20). The note with it: FLIPR intracellular Ca2+, 4 min preincubation, then EC20 acetylcholine (3 nM final), read-out: IP Value (inflection point). The format is cell-based. How it is done:
The assay studies the effect of one or several concentrations of test compounds on basal or acetylcholine-stimulated Ca^2+ levels using FLIPR.
Compounds are prepared and subjected to a preincubation period of 4 min. Thereafter, a single EC20 concentration of acetylcholine is added to each well (3 nM final). The intracellular Ca^2+ level of each sample is measured and compared to an acetylcholine control to determine any modulatory activity.
Cells: CHOnfat/hM1, hM2, hM3 or hM4 cells are plated 24 hr before the assay at a density of 18,000 cells/well (100 μL) in a 384 well plate. CHOnfat/hM1 and CHOnfat/hM3 Growth Medium: 90% DMEM (Hi Glucose); 10% HI FBS; 2 mM L-glutamine; 0.1 mM NEAA; Pen-Strep; and 1 mg/ml Geneticin, are added. For M2Gqi5CHOnfat and M4Gqi5CHOnfat cells, an additional 600 μg/ml hygromycin is added.
Buffers. […] Dye Loading Buffer: Assay Buffer plus 1% Fetal Bovine Serum and Fluo-4AM/Pluronic Acid Mixture. […] 20% Pluronic Acid Solution stock, with a concentration of 0.04% in Buffer, 0.02% in Assay.
65 μL of 2 mM Fluo-4AM are mixed with 130 μL of 20% Pluronic Acid. The resulting solution and 650 μL FBS is added to the assay buffer for a total volume of 65 mL. Positive Controls: 4-Br-A23187: 10 mM in DMSO; final concentration 10 μM. Acetylcholine: 10 mM in water, working stock at both 20 μM and 30 μM in assay buffer, final concentration of 10 μM. This is used to check the maximum stimulation of the CHOK1/hM1 cells. 20 μM (2×) acetylcholine is added in the preincubation part of the assay, and the 30 μM (3×) stock is added in the second part. (EC20)Acetylcholine: 10 mM in water, working stock of 9 nM (3×), and final concentration in assay is 3 nM. This is used after the preincubation with test compounds. Addition of the EC20 Acetylcholine to each well with a test compound will ascertain any modulator activity. 24 wells contain 3 nM Acetylcholine alone as a control.
Four 96-well plates are combined into a 384-well plate using Mosquito Nanolitre Pipetting System by transferring 1 μl of serial diluted compounds to each well, and 1 mM acetylcholine (100× stock concentration) were added as a control. Using Temo, 49 μl assay buffer is added to each well of the 384-well plate right before assay.
In a 96-well Whatman 2 ml Uniplate, 9 nM Acetylcholine (3×) is pipetted into wells corresponding to the screening compounds, and into control wells. The 30 μM acetylcholine control (3×) is added into control wells, and the 3× agonist plate is transferred into a 384-well plate.
Cells are washed three times with 100 μL, of buffer, leaving 30 μL of buffer in each well. Using Multimek, 30 μL of Dye Loading Buffer is added into each well and incubated at 37° C., 5% CO2 for up to one hr.
After 60 min, the cells are washed three times with 100 μL of buffer, leaving 30 μL of buffer in each well. The cell plate, screening plate, and agonist addition plates are placed on the platform in the FLIPR and the door is closed. A signal test to check background fluorescence and basal fluorescence signal is performed. Laser intensity is adjusted if necessary.
4 min of preincubation with the test compounds is provided to determine any agonist activity on the M1 receptor by comparison to the 1 mM acetylcholine control. After preincubation, the EC20 value of acetylcholine (3 nM final) is added to determine any modulator activity.
The inflection point is calculated from the FLIPR values, and is a measure of activity.
`Nc1ccc(-c2ccc(Cn3cc(C(=O)O)c(=O)c4c(F)cccc43)nc2)cn1` [Example 10]: the EC50 was determined as 103 nM. Then `CS(=O)(=O)Nc1cccc(-c2ccc(Cn3cc(C(=O)O)c(=O)c4cccc(F)c43)nc2)c1` [Example 101], with 99 nM. Then `C[S+]([O-])c1ccc(Cn2cc(C(=O)O)c(=O)c3cccc(F)c32)nn1` (stereo not shown) [Example 352], with 24800 nM; and `Nc1cccc(-c2ccc(Cn3cc(C(=O)O)c(=O)c4cccc(F)c43)nc2)c1` [Example 55], with 24 nM; and `O=C(O)c1cn(Cc2ccc(-c3ccc(F)nc3)cn2)c2cccc(F)c2c1=O` [Example 7], with 495 nM. Take `O=C(O)c1cn(Cc2ccc(-c3cnn(CC(F)(F)F)c3)cn2)c2c(F)ccc(F)c2c1=O` [Example 156]: the EC50 amounted to 114 nM. For `O=C(O)c1cn(Cc2ccc(-c3ccc(F)cc3F)cn2)c2c(F)cccc2c1=O` [Example 108], the EC50 was determined as 745 nM.

`O=C(O)c1cn(Cc2ccc(-n3cccn3)cn2)c2c(F)cccc2c1=O` [Example 68]: the EC50 was 1900 nM. On to `O=C(O)c1cn(Cc2c(F)cncc2F)c2c(F)cccc2c1=O` [Example 283], for which the EC50 stood at 2890 nM. For the compound `O=C(O)c1cn(Cc2ncc(-c3ccccc3O)cn2)c2c(F)cccc2c1=O` [Example 293], the EC50 came out at 2320 nM. For the compound `O=C(O)c1cn(Cc2cccc(-n3cccn3)n2)c2c(F)ccc(F)c2c1=O` [Example 160], the EC50 amounted to 2240 nM. Then `CCn1cc(-c2ccc(Cn3cc(C(=O)O)c(=O)c4c(F)ccc(F)c43)nc2)cn1` [Example 2], with 65 nM; and `O=C(O)c1cn(Cc2ccc(-c3cccc(O)c3)nn2)c2c(F)cccc2c1=O` [Example 319], with 382 nM. `CS(=O)(=O)c1ccc(Cn2cc(C(=O)O)c(=O)c3cccc(F)c32)nn1` [Example 373, 8-Fluoro-1-{[6-(methylsulfonyl)pyridazin-3-yl]methyl}-4-oxo-1,4-dihydroquinoline-3-carboxylic acid]: the EC50 was approximately 80000 nM.

As for `O=C(O)c1cn(Cc2ccc(-c3ccc(F)nc3)cn2)c2c(F)cccc2c1=O` [Example 1, 5-{6-[(3-Carboxy-8-fluoro-4-oxoquinolin-1(4H)-yl)methyl]pyridine-3-yl}-2-fluoropyridinium], the EC50 came to 202 nM.

In the case of `Cn1ccc2cc(-c3ccc(Cn4cc(C(=O)O)c(=O)c5cccc(F)c54)cn3)ccc21` [Example 234], the EC50 is 37 nM. Regarding `O=C(O)c1cn(Cc2ccc(-c3ccc(N4CCOCC4)nc3)cn2)c2cccc(F)c2c1=O` [Example 27], the EC50 amounted to 100 nM.

With `O=C(O)c1cn(Cc2ccc(N3CCC3)nn2)c2c(F)cccc2c1=O` [Example 334], the EC50 is 5250 nM. As for `O=C(O)c1cn(Cc2cnc(-c3ccncc3)cn2)c2c(F)cccc2c1=O` [Example 315], the EC50 was 7190 nM.

`COc1ccc(-c2ccc(Cn3cc(C(=O)O)c(=O)c4c(F)ccc(F)c43)nc2)cn1` [Example 134]: the EC50 amounted to 302 nM. For `O=C(O)c1cn(Cc2ccc(-c3ccccc3F)nn2)c2c(F)cccc2c1=O` [Example 329], the EC50 turned out to be 8660 nM.

On to `O=C(O)c1cn(Cc2ccc(N3CCCCC3)nn2)c2c(F)cccc2c1=O` [Example 372, 8-Fluoro-4-oxo-1-[(6-piperidin-1-ylpyridazin-3-yl)methyl]-1,4-dihydroquinoline-3-carboxylic acid], for which the EC50 was 14300 nM.
